Test results reported in patent US20200061007A1, “CANCER STEM CELL PROLIFERATION INHIBITOR” (NATIONAL INSTITUTE OF ADVANCED INDUSTRIAL SCIENCE AND …, priority 2014, published 2020).

Columns and labels:
[1] = test system: human pancreatic cancer cells MIA-Paca2; experiment: Tumor volume, MIA-Paca2/nude mice; format: in vivo
Method: A tumor piece of human pancreatic cancer cells MIA-Paca2 containing cells positive for cancer stem cell markers was subcutaneously transplanted to the dorsal part of each of 6-week-old female BALB/cAJc1-nu nude mice (4 mice/group, 5 mice only for the control group) using a trocar needle. At the time when the tumor volume reached 100 to 200 mm^3, the administration was started. Am80 was orally administered once a day at a dose of 2 mg/kg for 21 continuous days, and DXL was intravenously administered at a dose of 5 mg/kg from Day 1, 3 times at intervals of 4 days. In the combination group, the agents were administered at the same doses as, and by the same administration methods as, those in the cases of administration of each single agent. Measurement of the tumor diameter was carried out until the next day of the completion of the administration (Day 22). Based on the measured values of the longitudinal diameter and the transverse diameter, the tumor volume (mm^3) was determined according to the following formula: longitudinal diameter×transverse diameter^2/2. In the control group, physiological saline was intraperitoneally administered from Day 1, 3 times at intervals of 4 days.

[2] = test system: human breast cancer cell line MCF-7; experiment: Tumor volume, MCF-7/nude mice; format: in vivo
Method: (§1) A tumor piece of a human breast cancer cell line MCF-7 containing cells positive for cancer stem cell markers was subcutaneously transplanted to the dorsal part of each of 6-week-old female BALB/cAJc1-nu nude mice (5 mice/group) using a trocar needle. At the time when the tumor volume reached 100 to 200 mm^3, the administration was started. Am80 was orally administered once a day at a dose of 1 mg/kg for 21 continuous days, and DXL was intravenously administered at a dose of 3.5 mg/kg from Day 1, 3 times at intervals of 4 days. In the combination group, the agents were administered at the same doses as, and by the same administration methods as, those in the cases of administration of each single agent. Measurement of the tumor diameter was carried out until the next day of the completion of the administration (Day 22). The longitudinal diameter and the transverse diameter of the tumor were measured using a caliper, and the tumor volume (mm^3) was determined according to the following formula: longitudinal diameter×transverse diameter^2/2. In the control group, physiological saline was intraperitoneally administered from Day 1, 3 times at intervals of 4 days.

[3] = test system: human prostate cancer cell line LNCaP; experiment: Tumor volume, LNCaP/nude mice; format: in vivo
Method: as §1, with “prostate” for “breast”, “LNCaP” for “MCF-7”, “(4” for “(5”, “5” for “3.5”

[4] = test system: human breast cancer cell line MCF-7; experiment: Growth inhibition of MCF-7 in vitro; format: cell-based; details: MCF-7, 96 hours of exposure, RPMI1640 with 2% FBS
Method: (§2) A human breast cancer cell line MCF-7, containing cells positive for cancer stem cell markers, was cultured in RPMI1640 medium supplemented with 2% FBS, and the growth inhibitory action by the combination of Am80 and 5-AZ was studied. The IC50 values of the agents determined by 96 hours of the exposure were 1 μM and 20 μM, respectively. Thus, in order to study the growth inhibitory action, Am80 was used within the concentration range of 0.125 μM to 1 μM with a common ratio of 2, and 5-AZ was used within the concentration range of 2.5 μM to 20 μM with a common ratio of 2. In cases of use of these agents in combination, the growth inhibitory action was studied using these concentrations.

[5] = test system: human prostate cancer cell line LNCaP; experiment: Growth inhibition of LNCaP in vitro; format: cell-based; details: 96 hours of exposure, RPMI1640 with 10% FBS
Method: as §2, with “prostate” for “breast”, “LNCaP,” for “MCF-7,”, “10%” for “2%”, “The IC50 values of the agents determined by 96 hours of the exposure were 1 μM and 20 μM, respectively.” left out, “1.56” for “2.5”, “12.5” for “20”

[6] = test system: Human Leukemia Cell Line Kasumi-1; experiment: Growth inhibition of Kasumi-1, isobologram; format: cell-based; details: Kasumi-1, RPMI1640 with 20% FBS
Method: A human leukemia cell line Kasummi-1, containing cells positive for cancer stem cell markers, was cultured in RPMI1640 medium supplemented with 20% FBS, and the growth inhibitory action by the combination of Am80 and 5-AZ was studied using Isobologram. […] These concentrations were taken as 1.0, and the points corresponding to 1.0 in the two axes were connected to each other via a straight line. In cases where the ratio observed for the combination effect is on the line, the effect is additive, and, in cases where the ratio is below the line, the effect is synergistic.

SMILES: CC(=O)O[C@@]12CO[C@@H]1C[C@H](O)[C@@]1(C)C(=O)[C@H](O)C3=C(C)[C@@H](OC(=O)[C@H](O)[C@@H](NC(=O)OC(C)(C)C)c4ccccc4)C[C@@](O)([C@@H](OC(=O)c4ccccc4)[C@H]21)C3(C)C [DXL, Docetaxel]
- tumor volume Day 1 ([1]; Am80 2 mg/kg oral daily 21 days, DXL 5 mg/kg i.v. 3 times at intervals of 4 days, Day 1): 136.7 mm^3
- tumor volume Day 5 ([1]; Am80 2 mg/kg oral daily, DXL 5 mg/kg i.v., Day 5): 151.3 mm^3
- tumor volume Day 9 ([1]; Am80 2 mg/kg oral daily, DXL 5 mg/kg i.v., Day 9): 135.7 mm^3
- tumor volume Day 13 ([1]; Am80 2 mg/kg oral daily, DXL 5 mg/kg i.v., Day 13): 93.7 mm^3
- tumor volume Day 17 ([1]; Am80 2 mg/kg oral daily, DXL 5 mg/kg i.v., Day 17): 76.3 mm^3
- tumor volume Day 22 ([1]; Am80 2 mg/kg oral daily, DXL 5 mg/kg i.v., Day 22): 77.3 mm^3
- tumor volume Day 1 ([2]; Am80 1 mg/kg oral daily 21 days, DXL 3.5 mg/kg i.v. 3 times at intervals of 4 days, Day 1): 143.5 mm^3
- tumor volume Day 5 ([2]; Am80 1 mg/kg oral daily, DXL 3.5 mg/kg i.v., Day 5): 121.5 mm^3
- tumor volume Day 9 ([2]; Am80 1 mg/kg oral daily, DXL 3.5 mg/kg i.v., Day 9): 110.0 mm^3
- tumor volume Day 13 ([2]; Am80 1 mg/kg oral daily, DXL 3.5 mg/kg i.v., Day 13): 83.3 mm^3
- tumor volume Day 17 ([2]; Am80 1 mg/kg oral daily, DXL 3.5 mg/kg i.v., Day 17): 66.5 mm^3
- tumor volume Day 22 ([2]; Am80 1 mg/kg oral daily, DXL 3.5 mg/kg i.v., Day 22): 71.3 mm^3
- tumor volume Day 1 ([3]; Am80 1 mg/kg oral daily 21 days, DXL 5 mg/kg i.v. 3 times at intervals of 4 days, Day 1): 126.7 mm^3
- tumor volume Day 5 ([3]; Am80 1 mg/kg oral daily, DXL 5 mg/kg i.v., Day 5): 111.3 mm^3
- tumor volume Day 9 ([3]; Am80 1 mg/kg oral daily, DXL 5 mg/kg i.v., Day 9): 90.7 mm^3
- tumor volume Day 13 ([3]; Am80 1 mg/kg oral daily, DXL 5 mg/kg i.v., Day 13): 73.7 mm^3
- tumor volume Day 17 ([3]; Am80 1 mg/kg oral daily, DXL 5 mg/kg i.v., Day 17): 72.5 mm^3
- tumor volume Day 22 ([3]; Am80 1 mg/kg oral daily, DXL 5 mg/kg i.v., Day 22): 70.2 mm^3

SMILES: Nc1ncn([C@@H]2O[C@H](CO)[C@@H](O)[C@H]2O)c(=O)n1 [5-AZ, Azacytidine]
- IC50 [4]: 20 µM
- IC50 [5]: 25 µM
- IC50 [6]: 8.4 µM
